# Experimental data published in paper PMC10916402, “Meropenem-ANT3310, a unique β-lactam-β-lactamase inhibitor combination with expanded antibacterial spectrum against Gram-negative pathogens including carbapenem-resistant Acinetobacter baumannii” (Antimicrobial Agents and Chemotherapy, 2024).
# Read-outs that look alike come from different tables or passages of the source.
# Assays:
# Test in all cases: In vitro SBL inhibition assay (nitrocefin hydrolysis), IC50
# OXA-24/40 = OXA-24/40 (Acinetobacter baumannii, UniProt Q8RLA6); type: biochemical; conditions: 10 min preincubation, 30°C, read-out: Enzyme IC50
# OXA-24/40, sequence (Q8RLA6 22-275): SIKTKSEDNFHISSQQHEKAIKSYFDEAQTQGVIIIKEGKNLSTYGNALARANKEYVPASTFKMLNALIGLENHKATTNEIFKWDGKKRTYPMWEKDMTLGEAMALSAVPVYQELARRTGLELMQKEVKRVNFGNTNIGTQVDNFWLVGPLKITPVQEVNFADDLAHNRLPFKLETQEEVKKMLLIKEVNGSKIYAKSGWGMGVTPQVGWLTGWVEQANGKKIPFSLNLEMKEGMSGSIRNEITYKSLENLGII
# Protocol: (§1) Nitrocefin (Sigma-Aldrich, St Louis, MO, USA), a chromogenic cephalosporin antibiotic (λ, 482 nm; εM, 15,000 M^−1.cm^−1), was used as a reporter substrate at 100 µM for KPC-2, OXA-23, and OXA-48, at 200 µM for OXA-24 and OXA-51, and at 50 µM for OXA-58. Enzymes were preincubated in the presence of varying concentrations of each compound (0.006 to 3000 nM, diluted twofold in dimethyl sulfoxide (DMSO) for KPC-2, OXA-23, and OXA-48 assays and 0.51 to 10,000 nM diluted threefold in DMSO for OXA-24, OXA-51, and OXA-58) for 10 min at 30°C. Nitrocefin was then added and its hydrolysis by the uninhibited enzyme fraction was followed at an absorbance wavelength of 482 nm for 10 min at 30°C using Envision UV fluorescence plate reader (Perkin Elmer, Waltham, MA, USA). Hydrolysis rate data were used to determine inhibitory activities, expressed in IC50 values [corresponding to the compound concentration (µM) required to inhibit 50% of enzymatic reaction].
# KPC-2 = KPC-2 (Klebsiella pneumoniae, UniProt Q9F663); type: biochemical
# KPC-2, sequence (Q9F663 25-293 limits assumed): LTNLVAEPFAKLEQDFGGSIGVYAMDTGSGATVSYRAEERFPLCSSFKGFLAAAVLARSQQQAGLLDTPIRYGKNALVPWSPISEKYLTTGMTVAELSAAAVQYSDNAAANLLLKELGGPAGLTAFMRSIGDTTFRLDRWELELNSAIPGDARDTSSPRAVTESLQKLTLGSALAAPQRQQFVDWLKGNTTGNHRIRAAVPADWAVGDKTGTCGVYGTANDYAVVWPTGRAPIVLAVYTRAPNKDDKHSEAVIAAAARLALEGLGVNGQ
# Protocol: as §1
# OXA-23 = OXA-23 (Acinetobacter baumannii, UniProt Q9L4P2); type: biochemical; conditions: 10 min preincubation, 30°C, read-out: Enzyme IC50
# OXA-23, sequence (Q9L4P2 18-273): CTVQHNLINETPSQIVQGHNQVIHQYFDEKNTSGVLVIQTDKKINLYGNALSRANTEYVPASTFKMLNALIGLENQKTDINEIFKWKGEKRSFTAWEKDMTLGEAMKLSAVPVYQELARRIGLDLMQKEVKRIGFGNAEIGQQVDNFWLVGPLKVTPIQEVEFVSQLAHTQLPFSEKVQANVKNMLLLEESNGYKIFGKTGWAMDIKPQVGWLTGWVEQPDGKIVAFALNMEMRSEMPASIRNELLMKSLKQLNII
# Protocol: as §1
# OXA-58 = OXA-58 (Acinetobacter baumannii, UniProt Q2TR58); type: biochemical, A. baumannii
# OXA-58, sequence (Q2TR58 19-280): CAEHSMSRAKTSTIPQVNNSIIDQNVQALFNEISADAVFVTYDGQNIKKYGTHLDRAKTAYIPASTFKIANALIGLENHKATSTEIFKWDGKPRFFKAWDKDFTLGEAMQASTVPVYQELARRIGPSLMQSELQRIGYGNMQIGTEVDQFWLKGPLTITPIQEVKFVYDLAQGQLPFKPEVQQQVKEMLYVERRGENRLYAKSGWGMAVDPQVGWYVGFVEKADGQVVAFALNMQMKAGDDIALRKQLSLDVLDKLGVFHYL
# Protocol: as §1
# OXA-51 = OXA-51 (Acinetobacter baumannii, UniProt Q5QT35); type: biochemical, A. baumannii; conditions: 10 min preincubation, 30°C, read-out: Enzyme IC50
# OXA-51, sequence (Q5QT35 entry or part of it): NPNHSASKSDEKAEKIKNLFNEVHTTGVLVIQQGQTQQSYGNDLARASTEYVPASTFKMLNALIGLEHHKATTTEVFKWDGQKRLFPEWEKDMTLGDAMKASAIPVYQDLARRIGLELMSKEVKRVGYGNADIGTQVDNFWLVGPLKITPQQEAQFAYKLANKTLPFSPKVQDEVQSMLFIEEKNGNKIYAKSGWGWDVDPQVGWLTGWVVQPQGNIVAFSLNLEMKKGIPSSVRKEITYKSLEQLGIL
# Protocol: as §1
# OXA-48 = OXA-48 (Klebsiella pneumoniae, UniProt Q6XEC0); type: biochemical; conditions: 10 min preincubation, 30°C, read-out: Enzyme IC50
# OXA-48, sequence (Q6XEC0 23-265, looked up, species assumed): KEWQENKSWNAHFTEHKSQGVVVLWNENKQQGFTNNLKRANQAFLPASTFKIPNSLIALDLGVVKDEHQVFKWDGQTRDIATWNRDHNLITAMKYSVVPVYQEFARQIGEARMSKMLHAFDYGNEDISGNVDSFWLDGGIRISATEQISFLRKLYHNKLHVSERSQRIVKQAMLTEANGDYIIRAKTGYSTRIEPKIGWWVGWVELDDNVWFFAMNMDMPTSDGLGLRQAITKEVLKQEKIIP
# Protocol: as §1
SMILES,IC50 (OXA-24/40) [µM],IC50 (KPC-2) [µM],IC50 (OXA-23) [µM],IC50 (OXA-58) [µM],IC50 (OXA-51) [µM],IC50 (OXA-48) [µM],"IC50 (KPC-2; KPC-2, 10 min preincubation, 30°C, read-out: Enzyme IC50) [µM]"
"O=C(NNC(=O)[C@@H]1CC[C@@H]2CN1C(=O)N2OS(=O)(=O)O)[C@@H]1CCCNC1 [Zid, zidebactam]",> 10,0.0389,> 3,> 10,> 10,,
"NC(=O)[C@@H]1CC[C@@H]2CN1C(=O)N2OS(=O)(=O)O [Avi, avibactam]",,,,> 10,> 10,,
"NCCONC(=O)[C@@H]1CC[C@@H]2CN1C(=O)N2OS(=O)(=O)O [Nac, nacubactam]",> 10,0.0272,> 3,> 10,> 10,> 3,
"O=C(O)C[C@@H]1CC[C@H](NC(=O)Cc2cccs2)B(O)O1 [Vab, vaborbactam]",,,> 3,> 10,,> 3,0.102
